Experiment [1] relates to T-Rex 293 cell line SC cells lacking increased expression of BCL6 protein. Description: Cellular growth inhibition assay, T-Rex 293 SC cells without doxycycline (CellTiter-Glo). The format is cell-based. Particulars: T-Rex 293 SC cells not exposed to doxycycline (no increased BCL6 expression), 72 hours, CellTiter-Glo 2.0. The method, then:
(§1) Exemplary compounds were tested for ability to inhibit the proliferation of the following types of cells: (i) a T-Rex 293 cell line having increased expression of BCL6 protein due to exposure of doxycycline and (ii) a T-Rex 293 cell line lacking increased expression of BCL6 protein.
(§2) The following types of cells were prepared for this experiment: (i) a T-Rex 293 cell line having increased expression of BCL6 protein due to exposure to doxycycline and (ii) a T-Rex 293 cell line lacking increased expression of BCL6 protein. Ability of the test compounds to inhibit proliferation of the foregoing cell types was evaluated according to the procedures set forth below.
(§3) The doxycycline-inducible BCL6 protein expressing cell line was established using the following protocol: T-Rex 293 cells were purchased from Invitrogen (Cat #R71007) and transfected using Lipofectamine 2000 with the wild-type BCL6 protein sequence cloned into the pcDNA4/TO vector. Transfected cells were selected using 400 μg/mL Zeocin (Invitrogen Cat #R25001). Following selection, single clones were raised and maintained in Dulbecco's Modified Eagle Medium (DMEM) supplemented with 10% w/w Tetracycline-free fetal bovine serum (FBS) and 250 μg/mL Zeocin. Clones were analyzed for expression of BCL6 protein in the presence and absence of 10 ng/mL doxycycline (Sigma Cat #D9891), and a single doxycycline-inducible clone (hereinafter “SC”) was selected for use in downstream assays.
(§4) The SC cells were seeded on poly-D-lysine coated, black clear-bottom 384-well plates at 2500/well, in 25 μL Dulbecco's Modified Eagle Medium (DMEM) supplemented with 10% w/w Tetracycline-free fetal bovine serum (FBS) and 1% w/w pen-strep, with or without 10 ng/mL doxycycline. Pen-Strep is a commercially available mixture of penicillin G and streptomycin, which is used in mammalian cell culture media to prevent bacterial contamination. Dulbecco's Modified Eagle Medium (DMEM) supplemented with 10% w/w Tetracycline-free fetal bovine serum (FBS) and 1% w/w pen-strep, with or without 10 ng/mL doxycycline is herein referred to as Treatment Medium. Following seeding of cells in the plates, the plates were spun at 300×g for 30 seconds, then equilibrated to room temperature for 30 minutes, and then deposited in a humidified tissue culture incubator maintained at 37° C. with 5% CO2.
(§5) At 24 hours after seeding of the cells, dilutions of test compound were prepared in DMSO and dissolved in Treatment Medium, to achieve a final DMSO concentration of 0.5% w/w, thereby providing the Test Compound Solution. A 25 μL aliquot of the Test Compound Solution was added to cells in the well plates. An equal volume of a solution containing DMSO and Treatment Medium was used as a negative control. Following treatment of cells with Test Compound Solution or said equal volume of a solution containing DMSO and Treatment Medium, the plates were spun at 300×g for 30 seconds, and then left in an incubator for 72 hours.
(§6) At the end of the treatment duration, cell viability was quantified with CellTiter-Glo 2.0 reagent (Promega Cat #G9243). For this purpose, plates were equilibrated to room temperature for 30 minutes, and then 25 μL of CellTiter-Glo 2.0 reagent was added to cells in the plate wells. Plates were then agitated on a shaker for two minutes at 500 rpm and subsequently incubated at room temperature for 10 minutes. Following incubation, the plates were spun at 3000×g for 30 seconds, then sealed with an optical adhesive cover, and luminescence readings were measured with an EnVision Plate Reader (Perkin Elmer).
(§7) Data was normalized using zero luminescence for baseline. A four-parameter non-linear regression curve fit was applied to dose-response data in GraphPad Prism data analysis software to determine the half-maximal growth inhibitory concentration (GI50) for each test compound.
A general note: In ATP-based viability assays light output follows the ATP content of the culture.

For experiment [2], the system named is Farage cell line. Nature of the experiment: Cellular growth inhibition assay, Farage cells (CellTiter-Glo). The format is cell-based. The conditions noted are these: Farage cell line (DLBCL), 72 hours, CellTiter-Glo 2.0. The method, then: Exemplary compounds were tested for ability to inhibit the proliferation of Su-DHL-4 and Farage cells. Su-DHL-4 and Farage cells are commercially available diffuse large B cell lymphoma cell lines (DLBCL).
Su-DHL-4 and Farage cells were purchased from American Type Cell Culture (ATCC Cat #CRL-2957/CRL-2630) and then seeded on poly-D-lysine coated, black clear-bottom 384-well plates at 3000/well in 25 μL Roswell Park Memorial Institute media (RPMI-1640) supplemented with 10% w/w Fetal bovine serum (FBS) and 1% w/w Pen-Strep. Pen-Strep is a commercially available mixture of penicillin G and streptomycin, which is used in mammalian cell culture media to prevent bacterial contamination. Roswell Park Memorial Institute media (RPMI-1640) supplemented with 10% w/w fetal bovine serum (FBS), and 1% w/w Pen-Strep is herein referred to as Treatment Medium. Following seeding of cells in the plates, the plates were spun at 300×g for 30 seconds, then equilibrated to room temperature for 30 minutes, and then deposited in a humidified tissue culture incubator maintained at 37° C. with 5% CO2.
as §5, §6, §7

Experiment [3] concerns the target T1, biotinylated BCL6 (5-129) (Homo sapiens, UniProt P41182).
T1 construct: biotinylated BCL6 (5-129) was diluted in 10 mM HEPES pH 7.4; biotin (biotinylated)
Description: SPR assay for binding affinity to BCL6. Particulars: Biacore 8K, 25° C., immobilized biotinylated BCL6 (5-129). As for the experimental part: Exemplary compounds were tested for ability to bind to B-cell lymphoma 6 (BCL6) protein.
Binding studies by surface plasmon resonance (SPR) were performed using a Biacore 8K (Cytiva) instrument at 25° C. Briefly, biotinylated BCL6 (5-129) was diluted in 10 mM HEPES pH 7.4, 150 mM NaCl, 0.05% Surfactant P20, 0.5 mM TCEP, 3% DMSO to 1-5 μg/mL and was immobilized on an SA sensor chip (Cytiva, BR100032), resulting in surface densities at 1000-3000 resonance units (RUs). Test compounds were serially diluted five times in the same buffer and were injected to the immobilized surface. Kinetic determination experiments were performed using single-cycle kinetics with 110-120 s contact time, 1000-4000 s dissociation time, 30 μL/min flow rate. Binding data were analyzed by using Biacore insight evaluation software to determine KD values for test compounds.

Experiment [4] has as its system T-Rex 293 cell line SC cells having increased expression of BCL6 protein. Nature of the experiment: Cellular growth inhibition assay, T-Rex 293 SC cells with doxycycline (CellTiter-Glo). The format is cell-based. Particulars: T-Rex 293 SC cells with 10 ng/mL doxycycline (increased BCL6 expression), 72 hours, CellTiter-Glo 2.0. The method, then: as §1, §2, §3, §4, §5, §6, §7

For experiment [5], the target named is T2, His-tagged BRD4 BD1 (46-168) (Homo sapiens, UniProt O60885).
T2 construct: His-tagged BRD4 BD1 (46-168) and biotinylated histone H4K5/8/12/16(Ac) peptide
Description: AlphaLISA competition assay, BRD4 BD1. The format is binding. Particulars: BRD4-BD1, AlphaLISA competition with biotinylated histone H4K5/8/12/16(Ac) peptide, 10 nM. The method, then:
(§8) Exemplary compounds were tested for ability to bind to bromodomain-containing protein 4 (BRD4).
(§9) Compounds were tested using a developed AlphaLISA competition assay. Briefly, His-tagged BRD4 BD1 (46-168) and biotinylated histone H4K5/8/12/16(Ac) peptide (ANASPEC, AS-64989-1) were incubated in 20 mM HEPES pH 7.5, 100 mM NaCl, 0.5 mM TCEP, 0.1% BSA, 0.02% CHAPS at a final concentration of 10 nM. Test compounds were serially diluted ten times in the same buffer and were added to the BRD4-peptide mixture for 1 h incubation at room temperature. Following incubation, Streptavidin AlphaLISA acceptor beads (PerkinElmer, AL125M) were added to BRD4-peptide-compound samples to a final concentration of 0.01 mg/mL for a 0.5 h incubation at room temperature in the dark. Following incubation, the same amount of Nickel Chelate Alpha donor beads (PerkinElmer, AS101M) were added to the samples for a final 1 h incubation. The AlphaLISA signals were measured using an EnVision plate reader (PerkinElmer). The data were uploaded to Screening Ultra (Dotmatics) to determine the half-maximal inhibitory concentration (IC50) for each test compound.
(In general: In Alpha technology, singlet oxygen from a donor bead excites a nearby acceptor bead.)

Experiment [6] has as its target T3, His-tagged BRD4 BD2 (333-460) (Homo sapiens, UniProt O60885).
T3 construct: The same assay was developed for His-tagged BRD4 BD2 (333-460) and biotinylated histone H4K5/8/12/16(Ac) peptide
Nature of the experiment: AlphaLISA competition assay, BRD4 BD2. The format is binding. Particulars: BRD4-BD2, AlphaLISA competition with biotinylated histone H4K5/8/12/16(Ac) peptide, 20 nM. As for the experimental part:
as §8, §9
The same assay was developed for His-tagged BRD4 BD2 (333-460) and biotinylated histone H4K5/8/12/16(Ac) peptide at a final concentration of 20 nM.

For the molecule `CNC(=O)COc1cc2cc(Nc3nc(N4CCCC5(CN(C[C@H]6C[C@H](Oc7ccc(C(C)(C)O)cc7-c7cn(C)c(=O)c8[nH]ccc78)C6)C5)C4)ncc3Cl)ccc2n(C)c1=O` [Compound I-41], the GI50 in experiment [1] was above 3 µM; in experiment [2], 1.5 to 3 µM; in experiment [4], below 0.5 µM. In addition, the dissociation constant (Kd) in experiment [3] fell in the range of 0.001 to 0.01 µM. Besides, the IC50 is below 0.005 µM in experiment [5] and above 0.5 µM in experiment [6].

Turning to `CNC(=O)COc1cc2cc(Nc3nc(N4CCC5(CC4)CC(Oc4ccc(C6=N[C@@H](C)c7nnc(C)n7-c7sc(C)c(C)c76)cc4)C5)ncc3Cl)ccc2n(C)c1=O` [Compound I-28, 2-[[6-[[5-chloro-2-[2-[4-[(9S)-4,5,9,13-tetramethyl-3-thia-1,8,11,12-tetrazatricyclo[8.3.0.02,6]trideca-2 (6),4,7,10,12-pentaen-7-yl]phenoxy]-7-azaspiro[3.5]nonan-7-yl]pyrimidin-4-yl]amino]-1-methyl-2-oxo-3-quinolyl]oxy]-N-methyl-acetamide], the 50% growth inhibitory concentration (GI50) in experiment [1], in experiment [2] and in experiment [4] was below 0.5 µM throughout.

In the case of `CNC(=O)COc1cc2cc(Nc3nc(N4CCCC5(CN(C[C@H]6C[C@@H](Oc7ccc(C(C)(C)O)cc7-c7cn(C)c(=O)c8[nH]ccc78)C6)C5)C4)ncc3Cl)ccc2n(C)c1=O` [Compound I-42], the GI50 in experiment [1] is above 3 µM; in experiment [2], 1.5 to 3 µM; in experiment [4] it was below 0.5 µM. Further, the dissociation constant (Kd) in experiment [3] is below 0.001 µM. Moreover, the figures for the IC50 in experiment [5] and in experiment [6] were below 0.005 µM and above 0.5 µM, respectively.

Turning to `CNC(=O)COc1cc2cc(Nc3nc(N4CCC(CN5CCCC6(C5)CN(C[C@H]5C[C@@H](Oc7ccc(C(C)(C)O)cc7-c7cn(C)c(=O)c8[nH]ccc78)C5)C6)CC4)ncc3Cl)ccc2n(C)c1=O` [Compound I-44], the GI50 was 0.5 to 1.5 µM in experiment [1], below 0.5 µM in experiment [2] and below 0.5 µM in experiment [4]. The molecule also came in with a Kd in experiment [3] of 0.001 to 0.01 µM. Also, the half-maximal inhibitory concentration (IC50) in experiment [5] and in experiment [6] was below 0.005 µM throughout.

Take `CNC(=O)COc1cc2cc(Nc3nc(N4CCN(CCN5CCN(Cc6cccc(Oc7ccc(C(C)(C)O)cc7-c7cn(C)c(=O)c8[nH]ccc78)c6)CC5)CC4)ncc3Cl)ccc2n(C)c1=O` [Compound I-47]: the GI50 in experiment [1], in experiment [2] and in experiment [4] was below 0.5 µM in each case. The molecule further showed an equilibrium dissociation constant (Kd) in experiment [3] of 0.001 to 0.01 µM. Moreover, the half-maximal inhibitory concentration (IC50) in experiment [5] and in experiment [6] was below 0.005 µM each time.

As to `CNC(=O)COc1cc2cc(Nc3nc(N4CCC(CN5CCN(CC[C@H]6C[C@@H](Oc7ccc(C(C)(C)O)cc7-c7cn(C)c(=O)c8[nH]ccc78)C6)CC5)CC4)ncc3Cl)ccc2n(C)c1=O` [Compound I-46], the concentration for 50% growth inhibition (GI50) in experiment [1], in experiment [2] and in experiment [4] was below 0.5 µM throughout. This molecule also gave an equilibrium dissociation constant (Kd) in experiment [3] of 0.001 to 0.01 µM. The IC50 in experiment [5] and in experiment [6] was below 0.005 µM in each case.

With `CNC(=O)COc1cc2cc(Nc3nc(N4CCC(CN5CCN(Cc6ccc(Oc7ccc(C(C)(C)O)cc7-c7cn(C)c(=O)c8[nH]ccc78)cc6)CC5)CC4)ncc3Cl)ccc2n(C)c1=O` [Compound I-38], the GI50 in experiment [1], in experiment [2] and in experiment [4] was below 0.5 µM throughout. In experiment [3], this molecule yielded a Kd above 0.1 µM. Moreover, the half-inhibitory concentration (IC50) in experiment [5] and in experiment [6] was below 0.005 µM in each case.

Regarding `CNC(=O)COc1cc2cc(Nc3nc(N4CCC(CN5CCC6(CC5)CC(CC5CC(Oc7ccc(C(C)(C)O)cc7-c7cn(C)c(=O)c8[nH]ccc78)C5)C6)CC4)ncc3Cl)ccc2n(C)c1=O` (stereo not drawn) [Compound I-54], the concentration for 50% growth inhibition (GI50) in experiment [2] and in experiment [4] was below 0.5 µM throughout.

Regarding `CNC(=O)COc1cc2cc(Nc3nc(N4CCC(CN5CCC6(CC5)CC(CC5CC(Oc7ccc(C(C)(C)O)cc7-c7cn(C)c(=O)c8[nH]ccc78)C5)C6)CC4)ncc3Cl)ccc2n(C)c1=O` (stereo not drawn) [Compound I-53], the concentration for 50% growth inhibition (GI50) in experiment [1], in experiment [2] and in experiment [4] was below 0.5 µM throughout.

Regarding `CCS(=O)(=O)Nc1ccc(Oc2cccc(OCCN3CCN(CCC4CCN(c5ncc(Cl)c(Nc6ccc7c(c6)cc(OCC(=O)NC)c(=O)n7C)n5)CC4)CC3)c2)c(-c2cn(C)c(=O)c3[nH]ccc23)c1` [Compound I-13], the 50% growth inhibitory concentration (GI50) in experiment [1] and in experiment [4] was below 0.5 µM each time. Also, the IC50 in experiment [5] and in experiment [6] was 0.005 to 0.05 µM in each case.

The GI50 is the concentration that inhibits growth by half. Low readings indicate more potent growth inhibition, high ones less potent growth inhibition. Usually Kd stands for the equilibrium constant for the complex coming apart. The IC50 is the concentration that gives 50% inhibition. A higher IC50 goes with a need for much substance.

Source of the values: patent publication US20260028338A1, “HETEROBIFUNCTIONAL COMPOUNDS AND METHODS OF TREATING DISEASE” (Halda Therapeutics OpCo, Inc., priority 2023, published 2026).
